Test results from US20030083558A1, “Method of examining and diagnosing skin health” (priority 2001, published 2003).

Key:
IgE = experiment: Study 2: IgE in ISF by ELISA, effect of supplementation; format: in vivo, human
Experimental: (§1) The laser made four pores at each collection site.
(§2) The other skin analytes were measured in Study 2 using standard ELISA kits: MMP-1 (ELISA Cat # QIA55, Oncogene Research Products, Cambridge Mass.); Total IgE (ELISA Cat # RE59061, IBL, Hamburg, Germany distributed by KMI Diagnostics); Non Extraction IGF-1 (ELISA Cat # DSL-10-2800, Diagnostics Systems Laboratories, Webster Tex.); IL-1 RA (ELISA Cat # DRA00, R&D Systems, Minneapolis, Minn.); IL-1A (ELISA Cat # EH2IL1A, Pierce/Endogen, Rockford, Ill.).

IL-1A = experiment: Study 2: IL-1A in ISF by ELISA, effect of supplementation; format: in vivo, human
Experimental: as §1, §2

IL-1 RA = experiment: Study 2: IL-1 RA in ISF by ELISA, effect of supplementation; format: in vivo, human
Experimental: as §1, §2

MMP-1 = experiment: Study 2: MMP-1 in ISF by ELISA, effect of supplementation; format: in vivo, human
Experimental: as §1, §2

[1] = set-up: species or system human; conditions: in vivo
Text: The studies included non-smoking, female subjects of good health over the age of 35 years and under the age 55 years with skin type of III or less by the Fitzpatrick Skin classification. […] Acceptable subjects were chronologically enrolled in the study following a randomization code describing what treatment would be applied to which dorsal forearm. […] The subject applied a blinded emulsion designated by a letter to one dorsal forearm and an alternative emulsion with a different designation to the opposite arm, twice per day, for three weeks. […] ISF was extracted from the dorsal forearm, volar upper arm, and serum at one week (“Week 2”) and three weeks after dosing (“Week 4”) and two weeks after the cessation of dosing (“Week 6”).
ISF was extracted from both the treatment site (dorsal forearm) as well as an adjacent, untreated site volar upper arm) following one week of therapy and three weeks of therapy. Subjects ended treatment at this point and returned for a final extraction two weeks later.
The ISF collection period lasted between three and six hours, typically four hours.

- Influence of topical application on levels at an adjacent, untreated site or the serum [1]: does not influence
- Level at application site two weeks after ending therapy (week six) [1]: decreased to approximate baseline values
- Response of serum level to topical therapy [1]: did not respond
Compound: O=C1O[C@H]([C@@H](O)CO)C(O)=C1O [Vitamin C]
- Effect of vitamin C supplement on concentration of IgE in ISF (IgE): significantly increased
- Effect of vitamin C supplement on concentration of IL-1A in ISF (IL-1A): significantly increased
- Effect of vitamin C supplement on concentration of IL-1 RA in ISF (IL-1 RA): significantly increased
- Effect of vitamin C supplement on concentration of MMP-1 in ISF (MMP-1): significantly increased
- MMP-1 (log), Sun-exposed, Supplement Yes, MEAN (MMP-1; sun-exposed ISF): 0.64
- MMP-1 (log), Sun-protected, Supplement Yes, MEAN (MMP-1; sun-protected ISF): 0.91
